In US20100240029A1, “Cholesterol-Regulating Complex of SIRT1 and LXR and Methods of Use” (Massachusetts Institute of Technology, priority 2006, published 2010):
Like-named read-outs stand apart in the source and are kept apart here. Peptide text beside a SMILES is read from it. * marks the point of attachment. Cbz = O=C(OCc1ccccc1)*

Key:
[1] = test system: mouse ABCA1 promoter (LXRE); test: mouse ABCA1 promoter driven luciferase reporter assay in HEK293T cells; type: cell-based; details: for basal activity of control reporter missing the LXRE / induction of luciferase reporter driven by wildtype ABCA1 promoter: 6 h; for basal activity of control reporter missing the LXRE: 10 mM nicotinamide or 25 μM MG132; for induction of luciferase reporter driven by wildtype ABCA1 promoter: with 10 μM 22(R)—HC and 1 μM 9-cisRA, 10 mM nicotinamide, 25 μM MG132 or both; for inhibition of 22(R)—HC+9-cisRA-induced luciferase expression, wildtype ABCA1 promoter: 10 mM nicotinamide or 1 μM TSA
Description: The luciferase reporter plasmid pGL3-ABCA1 was created by inserting the −847 to +244 of mouse ABCA1 promoter region into KpnI-XhoI sites of pGL3 vector (Promega, Madison, Wi). pGL3-ABCA1-LXRE, the LXRE mutant version of pGL3-ABCA1, was created by deleting the LXRE from wildtype promoter of mouse ABCA1.
For the luciferase assay, MEFIs or HEK293T cells plated in 24-well plates were transfected with 100 ng of pGL3-ABCA1 or pGL3-ABCA1-LXRE, and 10 ng of pRL-TK (Renilla luciferase; Promega). The cells transfected with wildtype (WT) or LXRE mutant (−LXRE) mouse ABCA1 promoter driven luciferase reporter vectors were treated with 1 μM Trichostatin A (TSA), an inhibitor of class I and II deacetylases, or 10 mM nicotinamide (Nico), or both 10 mM nicotinamide+1 μM TSA. Cells transfected with the LXRE mutant vector were incubated in DMEM with 10% FBS in the absence (solid bars) or presence (open bars) of 10 μM 22(R)—HC and 1 μM 9-cisRA (FIG. 2b). Luciferase activity was then measured by using the Dual-Luciferase Reporter Assay System (Promega) 6 or 24 h later. The final GL (firefly luciferase) activity was normalized with co-expressed RL (Renilla luciferase) activity. The experiments were performed in duplicate and were repeated 3 times.
HEK293T cells transfected with wildtype (WT; FIG. 4g, left panel) or LXRE mutant (−LXRE; FIG. 4g, right panel) mouse ABCA1 promoter driven luciferase reporter vectors were treated with either 10 mM nicotinamide (Nico), 25 μM MG132, or both 10 mM nicotinamide+25 μM MG132, in the absence (solid bars) or presence (open bars) of 10 μM 22(R)—HC and 1 μM 9-cisRA for 6 h. Luciferase activities were measured and normalized as in Example 5.

HA-LXRβ = HA-LXRβ protein level in HEK293T cells by western blotting; type: cell-based, mouse; details: 6 h; for levels of HA-LXRβ protein: 1 μM TSA, 10 mM nicotinamide or 25 μM MG132
Description: HEK293T cells expressing HA-LXRβ driven by an exogenous CMV promoter were transfected either with pSuper vector, or with a pSuper-SIRT1 RNAi construct. Cells were harvested 3 days after transfection and the levels of HA-LXRβ and SIRT1 were analyzed by western blotting using antibodies to HA and SIRT1. […] Since there was no detectable reduction of LXR mRNA in SIRT1−/− mice (FIG. 3a), SIRT1 regulates LXR protein levels post-transcriptionally.
HEK293T cells expressing HA-LXRβ were treated with either control medium (FIG. 3c, lane 1), or medium with 1 μM TSA (lane 2), 10 mM nicotinamide (lane 3), 25 μM MG132 (carbobenzyloxy-Leu-Leu-Leu-al, a proteasome inhibitor) (lane 4), or 10 mM nicotinamide plus 25 μM MG132 (lane 5) for 6 h. Cells were then harvested and the levels of HA-LXRβ and SIRT1 were analyzed by western blotting using antibodies to HA (upper images) and SIRT1 (middle images). […] Since there was no detectable reduction of LXR's mRNA in SIRT1−/− mice (see Example 9, FIG. 3a), SIRT1 regulates LXR protein levels post-transcriptionally. It is believed that inhibition of SIRT1 activity by nicotinamide increases the protein levels of LXR by interfering with proteasome-mediated LXR degradation.
The basis for the finding that LXR activity is inversely correlated with protein levels was next examined. Since acetylation of lysine residues can block ubiquitination and SIRT1 is a deacetylase, loss of SIRT1 activity might stabilize LXR proteins by increasing the steady state level of LXR acetylation, thus inhibiting the ubiquitin/proteasome degradation pathway.

LXR targets = test: LXR target mRNAs in livers of mice fed T0901317 (real-time PCR); type: in vivo, mouse; details: 10 mg/kg oral gavage, 8 days
Source text: Total RNA was isolated from mouse livers, testes, thioglycolate-stimulated peritoneal macrophages, and ovaries by a Qiagen RNeasy mini-kit (Qiagen Inc., Calencia, Ca.). For real-time PCR analysis, cDNA was synthesized by SuperScript III reverse transcriptase (Invitrogen, Carlsbad, Calif.) with random primers. The resulting cDNA was then subjected to PCR analysis with gene-specific primers in the presence of Cybergreen (Qiagen Inc., Calencia, Ca.). Relative abundance of mRNA was obtained by normalization to cyclophilin levels. […] The mRNA levels of ABCA1 were quantified by phosphoimager and normalized against the corresponding actin levels.
To gain further insight into the effect of SIRT1 on LXR function in vivo, wildtype and SIRT1^−/− animals were analyzed for their response to 8-day oral administration of the LXR agonist T0901317 (N-(2,2,2-trifluoro-ethyl)-N-[4-(2,2,2-trifluoro-1-hydroxy-1-trifluoromethyl-ethyl)-phenyl]-benzenesulfonamide)^53.
2-6 month old SIRT1−/− and control males were fed with T0901317 (10 mg/kg) by oral gavage, plasma were collected before and after feeding for plasma lipid analyses. […] Total RNA from liver of wildtype animals without (black filled bar) or fed with 10 mg/kg T0901317 (black striped bar) and SIRT1^−/− mice without (open bar) or with T0901317 (gray striped bar) were analyzed by real-time PCR. […]

[2] = plasma and liver lipids of mice after 8-day oral T0901317; type: in vivo, mouse
Description: To determine the total cholesterol levels in mouse tissues, SIRT1^−/− mice and control littermates were fasted for four hours from the beginning of the daylight cycle before sacrificing. Tissues were then harvested and weighted. Total cholesterol from liver and testis were extracted and measured by GC as described previously^70, 71. Total lipids including triglycerides were also dissolved into a solution containing 60% butanol, 13% methanol, and 27% Triton X-100, and measured with the enzymatic, colorimetric assay kits from Wako.
2-6 month old SIRT1−/− and control males were fed with T0901317 (10 mg/kg) by oral gavage, plasma were collected before and after feeding for plasma lipid analyses. Tissues were collected after feeding for further analyses. Total RNA from liver of wildtype animals without (black filled bar) or fed with 10 mg/kg T0901317 (black striped bar) and SIRT1^−/− mice without (open bar) or with T0901317 (gray striped bar) were analyzed by real-time PCR. […] However, the induction of these targets in SIRT1^−/− mice was blunted. Total protein lysates were obtained from livers of indicated mice and analyzed for the levels of ABCA1 protein by immunoblotting (FIG. 3c). (As previously observed, ABCA1 proteins comprise multiple bands by western blotting^78.)
Plasma results in FIG. 3, panels d, e, and f represent the same mice before and after 8-days administration of T0901317. […]

[3] = through induction of SREBP-1c; cited from earlier work
THP-1 cells = test: apoAI-mediated [3H]cholesterol efflux from THP-1 cells; type: cell-based, human; details: THP-1, 10 mM nicotinamide for 48 h, efflux to 15 μg/ml apoAI for 24 h
Description: For the human monocytic cell line THP-1 cells, cells were treated with 10 mM nicotinamide in RPMI1640/10% FBS for 48 h, then cholesterol loaded with 50 μg/ml of LDL and 1 μCi/ml of [^3H]cholesterol in RPMI1640/1% FBS/0.2% BSA medium for 24 h. Cells were washed with PBS and incubated in RPMI 1640/0.2% BSA with or without 15 μg/ml apoAI for 24 h. The medium and cells were then separated, and cells were lysed with 0.2N NaOH. The radioactivity recovered in the medium and cell lysates were measured and the apoAI-mediated cholesterol efflux was calculated as described above.

[4] = test system: T1, NH2-terminal HA-tagged mouse LXRβ
T1 sequence: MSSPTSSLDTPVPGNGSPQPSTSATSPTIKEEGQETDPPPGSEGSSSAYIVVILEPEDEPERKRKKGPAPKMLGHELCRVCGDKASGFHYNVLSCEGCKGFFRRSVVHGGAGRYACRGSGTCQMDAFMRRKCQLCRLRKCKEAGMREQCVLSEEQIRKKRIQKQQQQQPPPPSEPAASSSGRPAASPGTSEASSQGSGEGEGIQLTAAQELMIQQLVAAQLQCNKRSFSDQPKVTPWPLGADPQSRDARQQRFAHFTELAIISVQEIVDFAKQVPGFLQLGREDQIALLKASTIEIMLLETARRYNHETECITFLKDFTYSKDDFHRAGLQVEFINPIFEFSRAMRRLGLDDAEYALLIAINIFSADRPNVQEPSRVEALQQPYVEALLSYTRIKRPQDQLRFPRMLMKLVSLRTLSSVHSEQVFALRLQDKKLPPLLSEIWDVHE

[5] = target: T2, NH2-terminal HA-tagged mouse LXRβ
T2 chain: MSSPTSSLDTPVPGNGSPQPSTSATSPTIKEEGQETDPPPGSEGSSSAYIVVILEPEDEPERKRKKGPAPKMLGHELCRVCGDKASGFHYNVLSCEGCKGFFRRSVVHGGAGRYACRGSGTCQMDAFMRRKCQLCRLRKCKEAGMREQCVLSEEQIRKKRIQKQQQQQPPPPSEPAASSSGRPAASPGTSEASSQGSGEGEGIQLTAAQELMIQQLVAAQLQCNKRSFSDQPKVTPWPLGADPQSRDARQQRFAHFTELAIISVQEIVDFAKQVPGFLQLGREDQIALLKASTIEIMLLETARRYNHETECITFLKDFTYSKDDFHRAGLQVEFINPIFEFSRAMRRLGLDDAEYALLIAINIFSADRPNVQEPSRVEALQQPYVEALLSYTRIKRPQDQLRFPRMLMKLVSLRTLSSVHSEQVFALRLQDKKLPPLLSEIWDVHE

Molecule: CC(C)C[C@@H](C=O)NC(=O)[C@H](CC(C)C)NC(=O)[C@H](CC(C)C)NC(=O)OCc1ccccc1 [MG132, carbobenzyloxy-Leu-Leu-Leu-al] (Cbz-Leu-Leu-Leu-aldehyde)
- basal activity of control reporter missing the LXRE [1]: not altered
- induction of luciferase reporter driven by wildtype ABCA1 promoter [1]: inhibited the reporter to the same extent as nicotinamide
- levels of HA-LXRβ protein (HA-LXRβ): increase the steady state levels of LXR
- levels of HA-LXRβ protein when SIRT1 is inhibited by nicotinamide (HA-LXRβ; 25 μM MG132 plus 10 mM nicotinamide (lane 4 vs. lane 5)): not when SIRT1 is inhibited by nicotinamide

Molecule: O=S(=O)(c1ccccc1)N(CC(F)(F)F)c1ccc(C(O)(C(F)(F)F)C(F)(F)F)cc1 [T0901317, N-(2,2,2-trifluoro-ethyl)-N-[4-(2,2,2-trifluoro-1-hydroxy-1-trifluoromethyl-ethyl)-phenyl]-benzenesulfonamide]
- induction of LXR targets SREBP-1c, LPL and ABCA1 in liver (LXR targets; SIRT1−/− mice): blunted
- expression of LXR targets SREBP-1c, LPL and ABCA1 at the RNA level in liver (LXR targets; wildtype mice): significantly induced
- induction of plasma and hepatic triglyceride accumulation ([2]; SIRT1−/− vs wildtype mice, 10 mg/kg oral, 8 days): reduced response
- plasma cholesterol levels after feeding ([2]; SIRT1−/− vs wildtype treated mice, especially HDL size particles): Lower plasma cholesterol levels
- plasma and hepatic triglycerides [3]: elevation of plasma and hepatic triglycerides

Molecule: CC(/C=C/C(=O)NO)=C\[C@@H](C)C(=O)c1ccc(N(C)C)cc1 [TSA, Trichostatin A]
- inhibition of 22(R)—HC+9-cisRA-induced luciferase expression, wildtype ABCA1 promoter [1]: not inhibited

Molecule: NC(=O)c1cccnc1 [nicotinamide]
- suppression of apoAI-mediated [3H]cholesterol efflux (THP-1 cells): roughly three-fold
- inhibition of 22(R)—HC+9-cisRA-induced luciferase expression, wildtype ABCA1 promoter [1]: 50%
- basal activity of control reporter missing the LXRE [1]: not altered
- induction of luciferase reporter driven by wildtype ABCA1 promoter [1]: blunted the induction
- levels of HA-LXRβ protein (HA-LXRβ): elevated levels

Molecule: human SIRT1 H355Y, inactive deacetylase mutant
- amount of ubiquitin-conjugated LXR (anti-HA immunoprecipitation, western blot with anti-ubiquitin) [4]: but not the inactive mutant hSIRT1HY increased the amount of ubiquitin-conjugated LXR in transfected HEK293T cells

B1: human SIRT1 protein (protein)
chain: MADEAALALQPGGSPSAAGADREAASSPAGEPLRKRPRRDGPGLERSPGEPGGAAPEREVPAAARGCPGAAAAALWREAEAEAAAAGGEQEAQATAAAGEGDNGPGLQGPSREPPLADNLYDEDDDDEGEEEEEAAAAAIGYRDNLLFGDEIITNGFHSCESDEEDRASHASSSDWTPRPRIGPYTFVQQHLMIGTDPRTILKDLLPETIPPPELDDMTLWQIVINILSEPPKRKKRKDINTIEDAVKLLQECKKIIVLTGAGVSVSCGIPDFRSRDGIYARLAVDFPDLPDPQAMFDIEYFRKDPRPFFKFAKEIYPGQFQPSLCHKFIALSDKEGKLLRNYTQNIDTLEQVAGIQRIIQCHGSFATASCLICKYKVDCEAVRGDIFNQVVPRCPRCPADEPLAIMKPEIVFFGENLPEQFHRAMKYDKDEVDLLIVIGSSLKVRPVALIPSSIPHEVPQILINREPLPHLHFDVELLGDCDVIINELCHRLGGEYAKLCCNPVKLSEITEKPPRTQKELAYLSELPPTPLHVSEDSSSPERTSPPDSSVIVTLLDQAAKSNDDLDVSESKGCMEEKPQEVQTSRNVESIAEQMENPDLKNVGSSTGEKNERTSVAGTVRKCWPNRVAKEQISRRLDGNQYLFLPPNRYIFHGAEVYSDSEDDVLSSSSCGSNSDSGTCQSPSLEEPMEDESEIEEFYNGLEDEPDVPERAGGAGFGTDGDDQEAINEAISVKQEVTDMNYPSNKS
- amount of ubiquitin-conjugated LXR (anti-HA immunoprecipitation, western blot with anti-ubiquitin) [5]: expression of an active SIRT1 transgene (hSIRT1) but not the inactive mutant hSIRT1HY increased the amount of ubiquitin-conjugated LXR in transfected HEK293T cells
